Experimental data: patent publication US7304073B2, “Method of treating myocardial ischemia-reperfusion injury using NF-kB inhibitors” (Wyeth, priority 2004, dated 2007)
Entries after “also recorded” stand apart in the source; their conditions may differ.

Experiments:
[1] = test system: perfused isolated male rat hearts; test: Isolated rat heart ischemia-reperfusion (Langendorff perfusion)
Experimental: Male rats 3 months old were anesthetized with sodium-pentobarbital and hearts were removed and mounted on a Langendorff apparatus. In this paradigm isolated hearts were perfused through an aortic cannula with a modified Krebs-Henseleit buffer equilibrated with 95% O2 and 5% CO2 at a constant pressure of 58 mmHg. Hearts were maintained at 37° C. throughout the experiments and temperature was continuously monitored with an IT-18 thermocouple microprobe inserted into the left ventricle (PhysiTemp, Clifton, N.J.). Flow rate was monitored with a flow probe and small animal flow meter (T206) from Transonic Systems Incorporated, Ithaca, N.Y. Hearts were perfused for 5 minutes with no additions followed by perfusion with vehicle or test compound which were continuously perfused throughout the remaining steps of the experiments. After 20 minutes the hearts were exposed to 100 nM isoproterenol for 5 minutes followed by 15 minutes global ischemia which was achieved by turning off the perfusion pump. After ischemia, hearts were reperfused at a constant flow rate for 50 minutes. This flow rate was equivalent to the rate used before ischemia to maintain 58 mmHg.
To assess ischemic damage, the change in left ventricular diastolic pressure was continually monitored using a fluid filled latex balloon inserted into the left ventricle through the left atrium. The diastolic pressure was initially adjusted to 5 mmHg. The pressure signals were recorded with a Grass Polygraph.
The release of creatine kinase (CK) enzyme activity from the hearts was also measured as a marker of cardiac damage. Fractions of perfusate were collected before ischemia and every 5 minutes during reperfusion. CK enzyme activity released from the hearts was determined in the perfusate fractions using CK reagent as recommended by the supplier (Sigma Diagnostics, St. Louis, Mo.).

[2] = test system: Adult ovariectomized female Sprague Dawley rats; test: In vivo rat heart ischemia-reperfusion (left coronary artery occlusion), infarct size
Experimental: A rat in vivo model was used to evaluate effects of experimental compounds on ischemia-reperfusion in the left ventricle. Adult ovariectomized female Sprague Dawley rats (>6 weeks) were used. All experimental procedures were performed under general anesthesia with a combination of ketamine and xylazine. Rats were placed on a heating pad and ventilated using a rodent ventilator. The chest was clipped free of hair, disinfected with Betadine and rinsed with alcohol. A small incision was made through skin and underlying muscles between 4th and 5th ribs in the left chest. The ribs were gently spread and the heart was exposed. A surgical suture was placed under the left coronary artery. The artery was occluded by tightening the suture for 30 minutes to induce myocardial ischemia and then re-opened for the 2 hour reperfusion period. […] At the end of reperfusion, hearts were harvested, perfused with Evans Blue, sectioned and stained with 2,3,5-triphenyltetrazolium chloride. Each section was digitally imaged. Infarct size and area at risk were measured and statistically analyzed.

[3] = test system: Ovariectomized female New Zealand White rabbits; test: In vivo rabbit heart ischemia-reperfusion (left anterior descending coronary artery occlusion), infarct size
Experimental: Ovariectomized female New Zealand White rabbits were anesthetized with a mixture of xylazine (3 mg/kg) and ketamine (35 mg/kg) administered IM, followed by an IV injection of sodium pentobarbital (15 mg/kg). An endotracheal tube was inserted and animals were positive pressure ventilated with room air. A Millar catheter micro-tip pressure transducer was inserted through the left carotid artery and positioned above the aortic valves to monitor aortic blood pressure. A lead II electrocardiogram was monitored throughout the experiment. A left thoracotomy and pericardiotomy were performed. […] A silk suture was passed behind the left anterior descending coronary artery and secured against polyethylene tubing for 30 minutes (ischemic period). Regional myocardial ischemia was verified by cyanosis in the region of the occluded vessel and by ST-segment elevation like changes in the electrocardiogram. The hearts were then reperfused for 4 hours.
To determine infarct size the heart was removed, cannulated through the aorta and perfused with Krebs-Henseleit buffer followed by perfilsion with 1% triphenyltetrazolium chloride (TTC). The left anterior descending coronary artery was re-occluded with a suture and 0.25% Evans Blue was perfused through the heart. The heart was cut into transverse sections and the area of the left ventricle, area at risk and the infarct area were traced and analyzed using Adobe PhotoShop Software. The infarct size is expressed as a percentage of the area at risk.

[4] = test system: uterus or breast; test: Activity in the uterus or breast; settings: in contrast to the known effects of 17β-estradiol
[5] = test system: myocardial ischemia-reperfusion models; settings: cited from earlier work
[6] = 1 uM, isolated rat heart, following ischemia-reperfusion

Row | SMILES | effect on increase in left ventricular diastolic pressure in comparison to vehicle [1, 6] | effect on left ventricular developed pressure in comparison to vehicle [1, 6] | release of creatine kinase (CK) activity from hearts following ischemia ([1]; 1 uM, perfusate during reperfusion phase, versus vehicle) | increase in left ventricular diastolic pressure after ischemia-reperfusion ([1]; luM of compound, 15 minutes global ischemia, 50 minutes reperfusion, vehicle 29 mmHg) | infarct size ([2]; 1 mg/kg iv 5 minutes before reperfusion, 30 minutes ischemia, 2 hour reperfusion, Mean±SEM, vehicle 54.6±3.2% / 54.4±4.7%) | effect on ischemia/reperfusion-induced myocardial infarction compared with vehicle ([2]; 1 mg/kg iv, ovariectomized female rats) | size of the area at risk relative to the area of the left ventricle ([3]; 1 mg/kg IV 30 minutes before induction of ischemia) | effect on infarct size in comparison to vehicle ([3]; 1 mg/kg IV 30 minutes before induction of ischemia, rabbit) | infarct size (ischemic area relative to the area at risk) ([3]; 1 mg/kg IV 30 minutes before ischemia, 30 minutes ischemia, 4 hours reperfusion, vehicle 59%) | activity in the uterus or breast [4] | melting point | protection in similar myocardial ischemia-reperfusion models [5]
1 | CC1c2cc(F)ccc2-c2ccccc2N1S(=O)(=O)c1ccc(O)cc1 (stereo not shown) [Example 3, 4-[(8-Fluoro-6-methylphenanthridin-5(6H)-yl)sulfonyl]phenol] | significantly attenuated; also recorded: cardioprotective activity | significantly attenuated; also recorded: cardioprotective activity | significantly reduced; also recorded: significant decreases; also recorded: cardioprotective activity | 11 mmHg | 32.6±5.2% | significantly less myocardial infarction; also recorded: cardioprotective activity | did not have an effect | significantly reduced infarct size; also recorded: cardioprotective activity | 39% | no activity | 188 °C | 
2 | C[C@]12CC[C@@H]3c4ccc(O)cc4CC[C@H]3[C@@H]1CC[C@@H]2O [17β-estradiol] |  |  |  |  |  |  |  |  |  |  |  | protective
3 | COc1cc(OC)cc(N2CCN(C(=O)[C@](C)(C#N)[C@H](c3ccccc3OC)c3cccc4ccccc34)CC2)c1 [Example 4, (S)-3-[4-(3,5-dimethoxyphenyl)piperazin-1-yl]-2-[(S)-(2-methoxyphenyl)(1-naphthyl)methyl]-2-methyl-3-oxopropanenitrile] |  |  |  |  |  |  |  |  |  |  | 186 to 188 °C | 
